Results as given in patent publication US20140017336A1, “CO-ADMINISTRATION OF ARSENIC COMPOUNDS AND ANTI-HERPES VIRUS ANTI-VIRALS” (priority 2011, published 2014).
Entries after “also recorded” stand apart in the source; their conditions may differ.

Assays:
[1] = system: EBV Zta mRNA; assay type: cell-based, Epstein-Barr virus; conditions: 72 hours, qRT-PCR
[2] = system: EBV BMRF1 mRNA; assay type: cell-based, Epstein-Barr virus; conditions: within 72 hours, qRT-PCR
[3] = molecular target: T1, PML NB (Homo sapiens, UniProt P29590); assay type: cell-based
T1 construct: CNE1 cells were infected with the BX-1 strain of EBV and PML-NBs were imaged by fluorescent microscopy; endogenous in cells; host or cells: CNE1<EBV-BX1> (EBV-infected CNE1) and uninfected parental CNE1
T1 sequence (P29590 1-882): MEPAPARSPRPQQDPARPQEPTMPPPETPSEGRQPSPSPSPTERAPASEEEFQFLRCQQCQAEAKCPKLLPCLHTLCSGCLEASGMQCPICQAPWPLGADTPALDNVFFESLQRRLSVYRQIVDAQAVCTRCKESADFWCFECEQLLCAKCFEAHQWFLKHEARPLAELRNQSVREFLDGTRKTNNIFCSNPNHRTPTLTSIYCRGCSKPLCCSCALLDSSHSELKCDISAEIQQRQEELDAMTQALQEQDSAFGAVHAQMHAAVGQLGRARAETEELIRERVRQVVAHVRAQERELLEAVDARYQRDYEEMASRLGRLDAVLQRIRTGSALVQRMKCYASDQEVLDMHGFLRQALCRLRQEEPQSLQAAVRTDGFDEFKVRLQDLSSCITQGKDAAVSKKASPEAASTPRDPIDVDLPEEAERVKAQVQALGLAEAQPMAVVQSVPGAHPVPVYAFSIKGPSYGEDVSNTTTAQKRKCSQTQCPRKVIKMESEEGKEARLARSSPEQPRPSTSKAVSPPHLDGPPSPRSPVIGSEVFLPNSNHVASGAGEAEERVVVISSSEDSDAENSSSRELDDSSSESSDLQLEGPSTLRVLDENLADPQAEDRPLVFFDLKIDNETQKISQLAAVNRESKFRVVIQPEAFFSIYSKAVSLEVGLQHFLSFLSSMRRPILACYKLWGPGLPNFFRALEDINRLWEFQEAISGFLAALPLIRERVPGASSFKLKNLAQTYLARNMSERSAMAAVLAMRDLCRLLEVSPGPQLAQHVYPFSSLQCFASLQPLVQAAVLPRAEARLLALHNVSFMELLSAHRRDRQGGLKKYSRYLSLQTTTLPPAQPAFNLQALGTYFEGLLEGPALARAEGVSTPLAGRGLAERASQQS

[4] = system: EBV Zta protein; assay type: in vivo, male nude mice; conditions: tumors harvested at 21 days of treatment
[5] = system: MUTU1<DNE1> cells (EBV-negative); experiment: Viable cell count (trypan blue exclusion), MUTU1<DNE1> cells; assay type: cell-based, human; conditions: 10 nM or 100 nM ATO, 2 and 3 days
[6] = system: EBV Zta; experiment: Western blot of Zta in EBV-negative MUTU cells; assay type: cell-based, Epstein-Barr virus; conditions: 0, 10 nM, 100 nM ATO, day 3
[7] = system: EBNA Cp mRNA; experiment: EBNA Cp mRNA expression in LCL<EBV1-13> cells; assay type: cell-based, Epstein-Barr virus; conditions: three days, 10 nM ATO
Procedure: (§1) FIGS. 8A-D. B-cells recently isolated from a patient were infected with EBV, allowed to grow out for several generations (only the EBV-infected cells would be able to grow out), and frozen until use. FIGS. 8A and B. FIGS. 8A and B graph the relative percent of viability of EBV-infected B-cells as just described (LCL<EBV1-13> cells) thawed and grown in one of: media alone (“control”), media and 45 μM ganciclovir (GCV), media and […] arsenic trioxide (ATO), or media and a combination of these concentrations of GCV and ATO. The bars show the relative viability of cells after 2 days of this treatment (“2 D,” FIG. 8A), and at three days (“3 D,” FIG. 8B). FIG. 8C. Epstein-Barr nuclear antigen (“EBNA”) driven by the C promoter (“Cp”) is transcribed only during the latent phase of the virus. FIG. 8C graphs the relative expression of EBNA Cp mRNA of LCL<EBV1-13> cells grown three days (“3 D”) in media alone (“control”), media and 45 μM ganciclovir (GCV), media and 10 nM arsenic trioxide (ATO), or media and a combination of these concentrations of GCV and ATO. […] FIG. 8D. FIG. 8D graphs the relative transcription of the viral immediate early protein Zta mRNA of LCL<EBV1-13> cells grown three days (“3 D”) in media alone (“control”), media and 45 μM ganciclovir (GCV), media and 10 nM arsenic trioxide (ATO), or media and a combination of these concentrations of GCV and ATO. […]

[8] = system: Zta mRNA; experiment: Zta mRNA transcription in LCL<EBV1-13> cells; assay type: cell-based, Epstein-Barr virus; conditions: three days, 10 nM ATO
Procedure: as §1

[9] = system: uninfected parental A549 cells; conditions: 4 days, 10 nM ATO, 40 μM GCV
[10] = dosage of ATO approved for relapsed or refractory acute promyelocytic leukemia (Fox et al., 2008); cited from earlier work
[11] = system: A549<EBVBX1>3A cells; experiment: Annexin V/propidium iodide viability, EBV infected A549 cells; conditions: 4 days

arsenic trioxide [ATO]
ATO concentration inducing an increase in Zta mRNA [1]: ≥ 12.5 nM
ATO dose inducing BMRF1 mRNA [2]: ≥ 12.5 nM
PML NB immunofluorescence signal ([3]; 1.0 nM ATO): below that of baseline untreated uninfected cells
ATO concentration sufficient to disrupt PML NBs ([3]; EBV positive CNE1 cells): 1 nM
PML NB immunofluorescence intensity, dose response ([3]; EBV positive CNE1 cells): diminished by exposure to ATO in a dose dependent manner
Zta expression in tumor explant tissue [4]: large pockets of reactivation
viable cells, EBV-negative MUTU cells [5]: No effect
Zta expression (Western blot), EBV-negative MUTU cells [6]: absent; also recorded: no Zta expression
relative expression of EBNA Cp mRNA [7]: drops dramatically
relative transcription of Zta mRNA [8]: approximately fourfold higher
viability of uninfected parental cells [9]: did not affect the viability; also recorded: no effect on the viability
peak serum arsenic level [10]: ~400 nM
percentage of annexin V positive cells ([11]; control 21%): 58%
percentage of viable cells ([11]; EBV positive cells, control 67%): 35%
